The record followed here is article PMC7351617 (Journal of neurochemistry, 2020).

The structures appear in SMILES notation. Like-named read-outs stand apart in the source and are kept apart here.

Experiment [1] deals with α7 nAChRs of rat adrenal chromaffin cells. Type of experiment: cell-based.
For experiment [2], the system named is rat adrenal chromaffin cells (native α3β4* / α3β2β4 nAChRs). The conditions noted are these: SD.

`COc1cc(OC)c(NC(=O)Nc2cc(C)on2)cc1Cl` [PNU120596]: in experiment [1], the “cells with detectable PNU282987-evoked currents in the presence of PNU120596” value is 24/28. Besides, in experiment [1] (SD), the “PNU282987-evoked current amplitude in the presence of PNU120596” value is given as −1275 ± 1668 pA and the “increase in PNU282987-evoked current amplitudes in the presence of PNU120596” value is 54 ± 99 fold.

On to `Cl.O=C(N[C@H]1CN2CCC1CC2)c1ccc(Cl)cc1` [PNU282987, N-[(3R)-1-Azabicyclo[2.2.2]oct-3-yl]-4-chlorobenzamide hydrochloride], for which, in experiment [1], the “PNU282987-evoked current amplitudes in some cells (relatively small)” value is on record as 10–20 pA and the “cells in which PNU282987 evoked currents” value was 18/28. The “PNU282987-evoked current amplitude before PNU120596” value in experiment [1] (SD) is on record as −29 ± 38 pA.

Regarding `CC(=O)OCC[N+](C)(C)C` [ACh, Acetylcholine (ACh) chloride], the results for the ACh-evoked currents in experiment [2] and in experiment [2] (n=7) were −2730 ± 1789 pA and −3992 ± 1649 pA, respectively.
